{"source": "paper PMC10702309", "about": "(ACS Omega, 2023)", "key": {"jack bean urease [1]": {"target": "T1, jack bean urease (Canavalia ensiformis, UniProt P07374)", "T1 sequence (P07374 whole entry, looked up)": "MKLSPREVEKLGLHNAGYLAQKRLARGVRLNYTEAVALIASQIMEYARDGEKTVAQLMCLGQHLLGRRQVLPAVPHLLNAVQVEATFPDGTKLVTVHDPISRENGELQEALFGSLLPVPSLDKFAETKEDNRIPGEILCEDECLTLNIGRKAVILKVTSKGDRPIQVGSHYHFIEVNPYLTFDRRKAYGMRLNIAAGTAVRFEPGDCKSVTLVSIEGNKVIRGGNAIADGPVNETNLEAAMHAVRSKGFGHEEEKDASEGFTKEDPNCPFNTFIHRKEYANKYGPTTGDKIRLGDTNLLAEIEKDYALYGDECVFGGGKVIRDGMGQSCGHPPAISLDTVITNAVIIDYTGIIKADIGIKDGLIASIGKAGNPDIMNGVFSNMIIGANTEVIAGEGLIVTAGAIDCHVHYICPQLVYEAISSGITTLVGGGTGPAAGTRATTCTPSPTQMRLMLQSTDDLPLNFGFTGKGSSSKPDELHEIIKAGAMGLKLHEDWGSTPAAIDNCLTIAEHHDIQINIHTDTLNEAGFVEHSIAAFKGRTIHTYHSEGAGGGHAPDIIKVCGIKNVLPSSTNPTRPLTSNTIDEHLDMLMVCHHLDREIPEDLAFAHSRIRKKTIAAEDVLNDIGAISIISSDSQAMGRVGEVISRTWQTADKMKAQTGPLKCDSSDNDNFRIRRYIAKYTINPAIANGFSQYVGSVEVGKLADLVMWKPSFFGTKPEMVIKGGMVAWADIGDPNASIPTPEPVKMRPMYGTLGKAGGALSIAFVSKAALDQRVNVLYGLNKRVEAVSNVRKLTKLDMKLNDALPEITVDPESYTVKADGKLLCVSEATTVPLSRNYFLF", "assay": "Enzyme kinetic studies", "format": "biochemical", "conditions": "for Vmax (app): at an inhibitor concentration of 20 μM; for mode of inhibition: urease, Lineweaver–Burk plots"}, "jack bean urease [2]": {"target": "T1, jack bean urease", "assay": "Antiurease assay", "format": "biochemical", "conditions": "for % inhibition (urease): inhibitor concentration not given"}}, "note": "Entries after “also recorded” stand apart in the source; their conditions may differ. Where two headings read alike, the source gives them in different places."}
{"smiles": "Cc1cccc(Nc2ccccc2C(=O)Nc2ccc(S(=O)(=O)Nc3nccs3)cc2)c1C", "note": "[conjugate 14, 2-((2,3-Dimethylphenyl)amino)-N-(4-(N-(thiazol-2-yl)sulfamoyl)phenyl)benzamide]", "values": [{"measurement": "Ki", "setting": "jack bean urease [1]", "result": 1.65, "unit": "µM"}, {"measurement": "Vmax (app)", "setting": "jack bean urease [1]", "result": 2.28, "unit": "µM/min"}, {"measurement": "mode of inhibition", "setting": "jack bean urease [1]", "result": "mixed"}, {"measurement": "IC50", "setting": "jack bean urease [2]", "result": "14.8 ± 0.27", "unit": "µM"}, {"measurement": "% inhibition (urease)", "setting": "jack bean urease [2]; jack bean urease", "result": 82.9, "unit": "%"}]}
{"smiles": "Cc1noc(NS(=O)(=O)c2ccc(NC(=O)Cc3ccccc3Nc3c(Cl)cccc3Cl)cc2)c1C", "note": "[conjugate 5, 2-(2-((2,6-Dichlorophenyl)amino)phenyl)-N-(4-(N-(3,4-dimethylisoxazol-5-yl)sulfamoyl)phenyl)acetamide]", "values": [{"measurement": "IC50", "setting": "jack bean urease [2]", "result": "23.1 ± 0.49", "unit": "µM"}, {"measurement": "% inhibition (urease)", "setting": "jack bean urease [2]; jack bean urease", "result": 73.4, "unit": "%"}]}
{"smiles": "Cc1ccnc(NS(=O)(=O)c2ccc(NC(=O)Cc3ccccc3Nc3c(Cl)cccc3Cl)cc2)n1", "note": "[conjugate 8, 2-(2-((2,6-Dichlorophenyl)amino)phenyl)-N-(4-(N-(4-methylpyrimidin-2-yl)sulfamoyl)phenyl)acetamide]", "values": [{"measurement": "Ki", "setting": "jack bean urease [1]", "result": 10.8, "unit": "µM"}, {"measurement": "Vmax (app)", "setting": "jack bean urease [1]", "result": 2.27, "unit": "µM/min"}, {"measurement": "mode of inhibition", "setting": "jack bean urease [1]", "result": "mixed"}, {"measurement": "IC50", "setting": "jack bean urease [2]", "result": "9.5 ± 0.28", "unit": "µM"}, {"measurement": "% inhibition (urease)", "setting": "jack bean urease [2]; jack bean urease", "result": 85.9, "unit": "%"}]}
{"smiles": "NC(N)=S", "note": "[thiourea, reference compound]", "values": [{"measurement": "Vmax (app)", "setting": "jack bean urease [1]", "result": 18.61, "unit": "µM/min"}, {"measurement": "Ki", "setting": "jack bean urease [1]; read-out: Ki (inhibition constant), calculated from secondary Lineweaver–Burk plots", "result": 18.2, "unit": "µM"}, {"measurement": "mode of inhibition", "setting": "jack bean urease [1]", "result": "competitive"}, {"measurement": "% inhibition (urease)", "setting": "jack bean urease [2]; jack bean urease", "result": 92.3, "unit": "%"}, {"measurement": "IC50", "setting": "jack bean urease [2]; read-out: IC50 (μM), mean ± SEM, jack bean urease, mean ± SEM", "result": "22.6 ± 0.23", "unit": "µM"}]}
{"smiles": "O=C(Cc1ccccc1Nc1c(Cl)cccc1Cl)Nc1ccc(S(=O)(=O)Nc2ncccn2)cc1", "note": "[conjugate 7, 2-(2-((2,6-Dichlorophenyl)amino)phenyl)-N-(4-(N-(pyrimidin-2-yl)sulfamoyl)phenyl)acetamid]", "values": [{"measurement": "IC50", "setting": "jack bean urease [2]", "result": "30.49 ± 0.28", "unit": "µM"}, {"measurement": "% inhibition (urease)", "setting": "jack bean urease [2]; jack bean urease", "result": 83.6, "unit": "%"}]}
{"smiles": "Cc1cccc(Nc2ccccc2C(=O)Nc2ccc(S(=O)(=O)NC(=N)N)cc2)c1C", "note": "[conjugate 19, N-(4-(N-Carbamimidoylsulfamoyl)phenyl)-2-((2,3-dimethylphenyl)amino)benzamide]", "values": [{"measurement": "IC50", "setting": "jack bean urease [2]", "result": "31.32 ± 0.29", "unit": "µM"}, {"measurement": "% inhibition (urease)", "setting": "jack bean urease [2]; jack bean urease", "result": 79.2, "unit": "%"}]}
{"smiles": "Cc1cccc(Nc2ccccc2C(=O)Nc2ccc(S(N)(=O)=O)cc2)c1C", "note": "[conjugate 12, 2-((2,3-Dimethylphenyl)amino)-N-(4-sulfamoylphenyl)benzamide]", "values": [{"measurement": "Ki", "setting": "jack bean urease [1]", "result": 3.06, "unit": "µM"}, {"measurement": "Vmax (app)", "setting": "jack bean urease [1]", "result": 8.62, "unit": "µM/min"}, {"measurement": "mode of inhibition", "setting": "jack bean urease [1]", "result": "competitively; also recorded: competitive"}, {"measurement": "IC50", "setting": "jack bean urease [2]", "result": "18.7 ± 0.21", "unit": "µM"}, {"measurement": "% inhibition (urease)", "setting": "jack bean urease [2]; jack bean urease", "result": 91.6, "unit": "%"}]}
{"smiles": "CC(=O)NS(=O)(=O)c1ccc(NC(=O)c2ccccc2Nc2cccc(C)c2C)cc1", "note": "[conjugate 18, N-(4-(N-Acetylsulfamoyl)phenyl)-2-((2,3-dimethylphenyl)amino)benzamide]", "values": [{"measurement": "IC50", "setting": "jack bean urease [2]", "result": "36.08 ± 0.28", "unit": "µM"}, {"measurement": "% inhibition (urease)", "setting": "jack bean urease [2]; jack bean urease", "result": 64.1, "unit": "%"}]}
{"smiles": "Cc1cc(NS(=O)(=O)c2ccc(NC(=O)Cc3ccccc3Nc3c(Cl)cccc3Cl)cc2)no1", "note": "[conjugate 9, 2-(2-((2,6-Dichlorophenyl)amino)phenyl)-N-(4-(N-(5-methylisoxazol-3-yl)sulfamoyl)phenyl)acetamide]", "values": [{"measurement": "IC50", "setting": "jack bean urease [2]", "result": "33.34 ± 0.21", "unit": "µM"}, {"measurement": "% inhibition (urease)", "setting": "jack bean urease [2]; jack bean urease", "result": 77.3, "unit": "%"}]}
{"smiles": "Cc1cccc(Nc2ccccc2C(=O)Nc2ccc(S(=O)(=O)Nc3ncccn3)cc2)c1C", "note": "[conjugate 15, 2-((2,3-Dimethylphenyl)amino)-N-(4-(N-(pyrimidin-2-yl)sulfamoyl)phenyl)benzamide]", "values": [{"measurement": "Ki", "setting": "jack bean urease [1]", "result": 1.04, "unit": "µM"}, {"measurement": "Vmax (app)", "setting": "jack bean urease [1]", "result": 6.36, "unit": "µM/min"}, {"measurement": "mode of inhibition", "setting": "jack bean urease [1]", "result": "mixed"}, {"measurement": "IC50", "setting": "jack bean urease [2]", "result": "7.92 ± 0.27", "unit": "µM"}, {"measurement": "% inhibition (urease)", "setting": "jack bean urease [2]; jack bean urease", "result": 84.9, "unit": "%"}]}
{"smiles": "Cc1cc(NS(=O)(=O)c2ccc(NC(=O)c3ccccc3Nc3cccc(C)c3C)cc2)no1", "note": "[conjugate 17, 2-((2,3-Dimethylphenyl)amino)-N-(4-(N-(5-methylisoxazol-3-yl)sulfamoyl)phenyl)benzamide]", "values": [{"measurement": "Ki", "setting": "jack bean urease [1]", "result": 0.46, "unit": "µM"}, {"measurement": "Vmax (app)", "setting": "jack bean urease [1]", "result": 8.54, "unit": "µM/min"}, {"measurement": "mode of inhibition", "setting": "jack bean urease [1]", "result": "competitively; also recorded: competitive"}, {"measurement": "IC50", "setting": "jack bean urease [2]", "result": "8.35 ± 0.26", "unit": "µM"}]}
{"smiles": "Cc1ccnc(NS(=O)(=O)c2ccc(NC(=O)c3ccccc3Nc3cccc(C)c3C)cc2)n1", "note": "[conjugate 16, 2-((2,3-Dimethylphenyl)amino)-N-(4-(N-(4-methylpyrimidin-2-yl)sulfamoyl)phenyl)benzamide]", "values": [{"measurement": "IC50", "setting": "jack bean urease [2]", "result": "94.99 ± 0.22", "unit": "µM"}, {"measurement": "% inhibition (urease)", "setting": "jack bean urease [2]; jack bean urease", "result": 68.3, "unit": "%"}]}
{"smiles": "CC(=O)NS(=O)(=O)c1ccc(NC(=O)Cc2ccccc2Nc2c(Cl)cccc2Cl)cc1", "note": "[conjugate 10, N-(4-(N-Acetylsulfamoyl)phenyl)-2-(2-((2,6-dichlorophenyl)amino)phenyl)acetamide]", "values": [{"measurement": "Ki", "setting": "jack bean urease [1]", "result": 2.73, "unit": "µM"}, {"measurement": "Vmax (app)", "setting": "jack bean urease [1]", "result": 3.46, "unit": "µM/min"}, {"measurement": "mode of inhibition", "setting": "jack bean urease [1]", "result": "competitively; also recorded: competitive"}, {"measurement": "IC50", "setting": "jack bean urease [2]", "result": "5.49 ± 0.34", "unit": "µM"}, {"measurement": "% inhibition (urease)", "setting": "jack bean urease [2]; jack bean urease", "result": 84.5, "unit": "%"}]}
{"smiles": "O=C(Cc1ccccc1Nc1c(Cl)cccc1Cl)Nc1ccc(S(=O)(=O)Nc2nccs2)cc1", "note": "[conjugate 6, 2-(2-((2,6-Dichlorophenyl)amino)phenyl)-N-(4-(N-(thiazol-2-yl)sulfamoyl)phenyl)acetamide]", "values": [{"measurement": "Ki", "setting": "jack bean urease [1]", "result": 16.3, "unit": "µM"}, {"measurement": "Vmax (app)", "setting": "jack bean urease [1]", "result": 0.755, "unit": "µM/min"}, {"measurement": "mode of inhibition", "setting": "jack bean urease [1]", "result": "mixed"}, {"measurement": "IC50", "setting": "jack bean urease [2]", "result": "16.2 ± 0.21", "unit": "µM"}, {"measurement": "% inhibition (urease)", "setting": "jack bean urease [2]; jack bean urease", "result": 71.3, "unit": "%"}]}
{"smiles": "Cc1cccc(Nc2ccccc2C(=O)Nc2ccc(S(=O)(=O)Nc3onc(C)c3C)cc2)c1C", "note": "[conjugate 13, N-(4-(N-(3,4-Dimethylisoxazol-5-yl)sulfamoyl)phenyl)-2-((2,3-dimethylphenyl)amino)benzamide]", "values": [{"measurement": "Ki", "setting": "jack bean urease [1]", "result": 4.82, "unit": "µM"}, {"measurement": "Vmax (app)", "setting": "jack bean urease [1]", "result": 3.03, "unit": "µM/min"}, {"measurement": "mode of inhibition", "setting": "jack bean urease [1]", "result": "mixed"}, {"measurement": "IC50", "setting": "jack bean urease [2]", "result": "15.9 ± 0.25", "unit": "µM"}, {"measurement": "% inhibition (urease)", "setting": "jack bean urease [2]; jack bean urease", "result": 94.1, "unit": "%"}]}
{"smiles": "N=C(N)NS(=O)(=O)c1ccc(NC(=O)Cc2ccccc2Nc2c(Cl)cccc2Cl)cc1", "note": "[conjugate 11, N-(4-(N-Carbamimidoylsulfamoyl)phenyl)-2-(2-((2,6-dichlorophenyl)amino)phenyl)acetamide]", "values": [{"measurement": "Ki", "setting": "jack bean urease [1]", "result": 1.09, "unit": "µM"}, {"measurement": "Vmax (app)", "setting": "jack bean urease [1]", "result": 1.11, "unit": "µM/min"}, {"measurement": "mode of inhibition", "setting": "jack bean urease [1]", "result": "mixed"}, {"measurement": "IC50", "setting": "jack bean urease [2]", "result": "4.35 ± 0.23", "unit": "µM"}, {"measurement": "% inhibition (urease)", "setting": "jack bean urease [2]; jack bean urease", "result": 78.7, "unit": "%"}]}
